For the test, the target named is T1, G1 APOL1 (Homo sapiens, UniProt O14791, I384M/S342G).
T1 construct: expressed in transfected cells
T1 sequence (O14791 28-398 S342G/I384M): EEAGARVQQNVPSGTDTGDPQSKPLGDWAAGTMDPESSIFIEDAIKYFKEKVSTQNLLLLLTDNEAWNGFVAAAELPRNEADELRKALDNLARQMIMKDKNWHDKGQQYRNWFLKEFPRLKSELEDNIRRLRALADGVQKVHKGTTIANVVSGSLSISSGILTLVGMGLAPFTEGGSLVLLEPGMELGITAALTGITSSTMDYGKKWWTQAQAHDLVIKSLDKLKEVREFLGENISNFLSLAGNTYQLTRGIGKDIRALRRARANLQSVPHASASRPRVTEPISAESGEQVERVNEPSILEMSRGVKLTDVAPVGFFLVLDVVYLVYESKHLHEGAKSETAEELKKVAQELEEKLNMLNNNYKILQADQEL
Nature of the test: Acute APOL1 Thallium Assay with inducible stable clones of HEK 293 cells. The conditions noted are these: HEK 293 T-Rex cells expressing G1 APOL1. The format is cell-based. The method in brief: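 Readout: Tl+-triggered fluorescence, FLIPR, reflecting potassium flux through APOL1 pores after cells take up an AM-ester thallium indicator. Cells: HEK T-Rex stable clone G1 DC3.25, APOL1 G1 induced by tetracycline, seeded 26000 per well.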

[1] abbreviates: read-out: Thallium Assay (IC50).

pIC50: −log10 of the molar value. Like-named read-outs stand apart in the source and are kept apart here.

The term pIC50 denotes the negative decadic logarithm of the IC50, by convention in mol/L. Regarding `CN(C)C(=O)CN(C)C(=O)[C@H]1C[C@H](c2c(-c3ccc(F)cc3)[nH]c3c(F)cc(F)cc32)C1` [Compound 62], the pIC50 under setting [1] is 6.00 to 6.60. Consider `CCOCC1(CNC(=O)[C@H]2C[C@H](c3c(-c4ccc(F)cc4)[nH]c4c(F)cc(F)cc43)C2)CC1` [Compound 55], for which the pIC50 under setting [1] is less than 6.00. As to `CC(NC(=O)[C@H]1C[C@H](c2c(-c3ccc(F)cc3)[nH]c3c(F)cc(F)cc32)C1)C(N)=O` (mixture of isomers) [Compound 68], the pIC50 under setting [1] was 6.00 to 6.60. `O=C([C@H]1C[C@H](c2c(-c3ccc(F)cc3)[nH]c3c(F)cc(F)cc32)C1)N1CCC(O)(O)CC1` [Compound 127] had a pIC50 (Thallium Assay (IC50)) of less than 6.00. As to `COCC1(CNC(=O)[C@H]2C[C@H](c3c(-c4ccc(F)cc4)[nH]c4c(F)cc(F)cc43)C2)CC1` [Compound 53], the pIC50 under setting [1] was less than 6.00.

The values above are taken from patent publication US12116343B2, “Inhibitors of APOL1 and methods of using same” (Vertex Pharmaceuticals Incorporated, priority 2020, dated 2024).
